Assay results reported in PubChem BioAssay (NCI).
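Five concentrations, 48 hours, 96-well plates. At the TGI there is no net growth.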

Experiments:
Assay in all cases: NCI tumour cell line growth inhibition, 48 h
[1] = system: 786-0 renal
[2] = system: A498 renal
[3] = system: A549 NSCLC
[4] = system: ACHN renal
[5] = system: BT-549 breast
[6] = system: CAKI-1 renal
[7] = system: CCRF-CEM leukemia
[8] = system: COLO 205 colon
[9] = system: DU-145 prostate
[10] = system: EKVX NSCLC
[11] = system: HCT-116 colon
[12] = system: HCT-15 colon
[13] = system: HL-60(TB) leukemia
[14] = system: HOP-62 NSCLC
[15] = system: HOP-92 NSCLC
[16] = system: HT29 colon
[17] = system: IGROV1 ovarian
[18] = system: K-562 leukemia
[19] = system: KM12 colon
[20] = system: LOX IMVI melanoma
[21] = system: M14 melanoma
[22] = system: MALME-3M melanoma
[23] = system: MDA-MB-231 breast
[24] = system: MDA-MB-435
[25] = system: MDA-N
[26] = system: MOLT-4 leukemia
[27] = system: NCI-H226 lung
[28] = system: NCI-H23 lung
[29] = system: NCI-H460 lung
[30] = system: NCI-H522 lung
[31] = system: NCI/ADR-RES ovarian
[32] = system: OVCAR-3 ovarian
[33] = system: OVCAR-4 ovarian
[34] = system: OVCAR-5 ovarian
[35] = system: OVCAR-8 ovarian
[36] = system: PC-3 prostate
[37] = system: RPMI-8226 leukemia
[38] = system: RXF 393 renal
[39] = system: SF-268 CNS
[40] = system: SF-295 CNS
[41] = system: SF-539 CNS
[42] = system: SK-MEL-2 melanoma
[43] = system: SK-MEL-28 melanoma
[44] = system: SK-MEL-5 melanoma
[45] = system: SK-OV-3 ovarian
[46] = system: SN12C renal
[47] = system: SNB-19 CNS
[48] = system: SNB-75 CNS
[49] = system: SW-620 colon
[50] = system: T-47D breast
[51] = system: TK-10 renal
[52] = system: U251 CNS
[53] = system: UACC-257 melanoma
[54] = system: UACC-62 melanoma
[55] = system: UO-31 renal
[56] = system: HCC-2998 colon
[57] = system: HS 578T breast
[58] = system: MCF7 breast
[59] = system: SR leukemia

Compound: COC(=O)c1cc(Br)c(C(=O)C(Cl)(Cl)Cl)[nH]1
- TGI [1]: > 100 µM
- TGI [2]: > 100 µM
- TGI [3]: > 100 µM
- TGI [4]: > 100 µM
- TGI [5]: > 100 µM
- TGI [6]: > 100 µM
- TGI [7]: > 100 µM
- TGI [8]: > 100 µM
- TGI [9]: > 100 µM
- TGI [10]: > 100 µM
- TGI [11]: > 100 µM
- TGI [12]: > 100 µM
- TGI [13]: > 100 µM
- TGI [14]: > 100 µM
- TGI [15]: > 100 µM
- TGI [16]: > 100 µM
- TGI [17]: > 100 µM
- TGI [18]: > 100 µM
- TGI [19]: > 100 µM
- TGI [20]: > 100 µM
- TGI [21]: > 100 µM
- TGI [22]: > 100 µM
- TGI [23]: > 100 µM
- TGI [24]: > 100 µM
- TGI [25]: > 100 µM
- TGI [26]: > 100 µM
- TGI [27]: > 100 µM
- TGI [28]: > 100 µM
- TGI [29]: > 100 µM
- TGI [30]: > 100 µM
- TGI [31]: > 100 µM
- TGI [32]: > 100 µM
- TGI [33]: > 100 µM
- TGI [34]: > 100 µM
- TGI [35]: > 100 µM
- TGI [36]: > 100 µM
- TGI [37]: > 100 µM
- TGI [38]: > 100 µM
- TGI [39]: > 100 µM
- TGI [40]: > 100 µM
- TGI [41]: > 100 µM
- TGI [42]: > 100 µM
- TGI [43]: > 100 µM
- TGI [44]: > 100 µM
- TGI [45]: > 100 µM
- TGI [46]: > 100 µM
- TGI [47]: > 100 µM
- TGI [48]: > 100 µM
- TGI [49]: > 100 µM
- TGI [50]: > 100 µM
- TGI [51]: > 100 µM
- TGI [52]: > 100 µM
- TGI [53]: > 100 µM
- TGI [54]: > 100 µM
- TGI [55]: > 100 µM

Compound: C=C(Cl)C(C)(Cl)CCC(Cl)C(C)(C)Cl (stereo not given)
- TGI [1]: > 100 µM
- TGI [2]: > 100 µM
- TGI [3]: > 100 µM
- TGI [4]: > 100 µM
- TGI [5]: > 100 µM
- TGI [6]: > 100 µM
- TGI [7]: > 100 µM
- TGI [8]: > 100 µM
- TGI [9]: > 100 µM
- TGI [10]: > 100 µM
- TGI [56]: > 100 µM
- TGI [11]: > 100 µM
- TGI [13]: > 100 µM
- TGI [14]: > 100 µM
- TGI [15]: > 100 µM
- TGI [57]: > 100 µM
- TGI [16]: > 100 µM
- TGI [17]: > 100 µM
- TGI [18]: > 100 µM
- TGI [19]: > 100 µM
- TGI [20]: 61.2 µM
- TGI [21]: > 100 µM
- TGI [22]: > 100 µM
- TGI [58]: > 100 µM
- TGI [23]: 83.3 µM
- TGI [24]: > 100 µM
- TGI [25]: > 100 µM
- TGI [26]: 66.1 µM
- TGI [27]: > 100 µM
- TGI [28]: > 100 µM
- TGI [29]: > 100 µM
- TGI [30]: 56.3 µM
- TGI [31]: > 100 µM
- TGI [32]: > 100 µM
- TGI [33]: > 100 µM
- TGI [34]: > 100 µM
- TGI [36]: > 100 µM
- TGI [37]: 48.7 µM
- TGI [38]: > 100 µM
- TGI [39]: > 100 µM
- TGI [40]: > 100 µM
- TGI [41]: > 100 µM
- TGI [42]: > 100 µM
- TGI [43]: > 100 µM
- TGI [44]: > 100 µM
- TGI [45]: > 100 µM
- TGI [46]: > 100 µM
- TGI [47]: > 100 µM
- TGI [48]: > 100 µM
- TGI [59]: 61.3 µM
- TGI [49]: > 100 µM
- TGI [51]: > 100 µM
- TGI [52]: > 100 µM
- TGI [53]: > 100 µM
- TGI [55]: > 100 µM

Compound: COC(=O)[C@@H]1O[C@]12C(CO[Si](C)(C)C(C)(C)C)OC(n1ccc(=O)[nH]c1=O)C2O[Si](C)(C)C(C)(C)C (stereo not given in full)
- TGI [1]: > 100 µM
- TGI [3]: > 100 µM
- TGI [4]: 54.1 µM
- TGI [5]: 47.7 µM
- TGI [6]: 72 µM
- TGI [7]: > 100 µM
- TGI [8]: 69.7 µM
- TGI [9]: 61.1 µM
- TGI [10]: 62.6 µM
- TGI [56]: > 100 µM
- TGI [11]: > 100 µM
- TGI [12]: > 100 µM
- TGI [13]: 62.6 µM
- TGI [14]: 48 µM
- TGI [15]: 88.1 µM
- TGI [16]: 43.4 µM
- TGI [17]: 46.1 µM
- TGI [18]: > 100 µM
- TGI [19]: 77.9 µM
- TGI [20]: 42.5 µM
- TGI [21]: 30.7 µM
- TGI [58]: 37.2 µM
- TGI [23]: > 100 µM
- TGI [24]: 58.7 µM
- TGI [25]: > 100 µM
- TGI [26]: 76.5 µM
- TGI [27]: 30.7 µM
- TGI [28]: 54.5 µM
- TGI [29]: > 100 µM
- TGI [30]: 45.4 µM
- TGI [31]: > 100 µM
- TGI [32]: 30.8 µM
- TGI [33]: > 100 µM
- TGI [34]: 77.5 µM
- TGI [35]: > 100 µM
- TGI [36]: 68.1 µM
- TGI [37]: > 100 µM
- TGI [39]: > 100 µM
- TGI [40]: 57.7 µM
- TGI [41]: 38 µM
- TGI [42]: 33.2 µM
- TGI [43]: 59 µM
- TGI [44]: 51.6 µM
- TGI [45]: > 100 µM
- TGI [46]: 85.7 µM
- TGI [47]: > 100 µM
- TGI [48]: > 100 µM
- TGI [49]: > 100 µM
- TGI [51]: 83.9 µM
- TGI [52]: > 100 µM
- TGI [53]: 57.5 µM
- TGI [54]: 72.7 µM
- TGI [55]: 45.5 µM

Compound: CC(=O)OCc1nc(C#N)c(N)o1
- TGI [1]: > 100 µM
- TGI [2]: > 100 µM
- TGI [4]: > 100 µM
- TGI [5]: > 100 µM
- TGI [6]: > 100 µM
- TGI [7]: > 100 µM
- TGI [8]: > 100 µM
- TGI [9]: > 100 µM
- TGI [10]: > 100 µM
- TGI [56]: > 100 µM
- TGI [11]: > 100 µM
- TGI [12]: > 100 µM
- TGI [13]: > 100 µM
- TGI [14]: > 100 µM
- TGI [15]: > 100 µM
- TGI [57]: > 100 µM
- TGI [16]: > 100 µM
- TGI [17]: > 100 µM
- TGI [18]: > 100 µM
- TGI [19]: > 100 µM
- TGI [20]: > 100 µM
- TGI [22]: > 100 µM
- TGI [58]: > 100 µM
- TGI [23]: > 100 µM
- TGI [24]: > 100 µM
- TGI [25]: > 100 µM
- TGI [26]: > 100 µM
- TGI [27]: > 100 µM
- TGI [28]: > 100 µM
- TGI [29]: > 100 µM
- TGI [30]: > 100 µM
- TGI [32]: > 100 µM
- TGI [33]: > 100 µM
- TGI [34]: > 100 µM
- TGI [36]: > 100 µM
- TGI [37]: > 100 µM
- TGI [38]: > 100 µM
- TGI [39]: > 100 µM
- TGI [40]: > 100 µM
- TGI [42]: > 100 µM
- TGI [43]: > 100 µM
- TGI [44]: > 100 µM
- TGI [45]: > 100 µM
- TGI [46]: > 100 µM
- TGI [47]: > 100 µM
- TGI [59]: > 100 µM
- TGI [49]: > 100 µM
- TGI [51]: > 100 µM
- TGI [52]: > 100 µM
- TGI [53]: > 100 µM
- TGI [54]: > 100 µM
- TGI [55]: > 100 µM
